Results: patent publication US20060078499A1, “Use of hedgehog agonist to treat depression” (priority 2003, published 2006)

How the values were obtained:
[1] = test system: BrdU-positive cells within the SGZ and granule cell layer; experiment: Survival and phenotype of BrdU-positive cells 28 days after BrdU injection; format: in vivo, mouse; conditions: for BrdU-positive cells surviving 28 days after BrdU injection: chronic treatment
Procedure: (§1) To assess the effect of antidepressant or X-irradiation treatments on the number of BrdU-positive cells, mice were administered BrdU (4×75 mg/kg i.p., dissolved in saline, every 2 hr; Roche Diagnostic, Indianapolis, Ind.) and sacrificed 24 hr after the last BrdU injection (FIG. 2A, 3B, 5C-D). To determine cell survival and phenotype after the various antidepressant treatments, fluoxetine, imipramine and vehicle-treated mice were allowed to survive for 28 days after the last BrdU injection (FIG. 2C-D, 3C). After deep anesthesia with a mixture of ketamine/xylazine (100 mg/kg and 7 mg/kg respectively), mice were transcardially perfused (cold saline for 2 min, followed by 4% cold paraformaldehyde/0.1 M phosphate buffer for 5 min) and brains were collected for immunohistochemistry. All brains were post-fixed overnight in 4% paraformaldehyde at 4° C., then cryoprotected in 30% sucrose and stored at 4° C. Serial sections of the brains were cut (35 μm sections) through the entire hippocampus (plates 41-61; Franklin and Paxinos, 1997) on a cryostat and stored in PBS with 0.1% NaN3. For DAB staining, sections were slide-mounted and boiled in citric acid, pH 6.0, for 5 min, rinsed with PBS, and treated with 0.01% trypsin in Tris/CaCl2 for 10 min. Brain sections were incubated for 30 min with 2N HCl and blocked with 5% NGS (Jackson ImmunoResearch, West Grove, Pa.). Sections were then incubated over night at room temperature with anti-mouse BrdU (1:100; Becton-Dickinson). After washing with PBS, sections were incubated for 1 hr with secondary antibody (1:200 biotinylated goat anti-mouse; Sigma-Aldrich, St. Louis, Mo.) followed by amplification with an avidin-biotin complex (Vector Laboratories). The staining was visualized with DAB (Sigma-Aldrich, St. Louis, Mo.). For fluorescent double-labeling, the DNA-denaturation procedure consisted of the following steps: 2 hr incubation in 50% formamide-2×SSC at 65° C., 5 min rinse in 2×SSC, 30 min incubation in 2N HCl at 37° C., and 10 min rinse in 0.1 M boric acid, pH 8.5. Sections were then incubated in TBS-0.1% Triton X-100 (Tx)-5% normal donkey serum (NDS) for 30 min, followed by anti-rat BrdU primary antibody (1:100; Accurate Westbury, N.Y. or Serotec, Oxford, UK) in TBS/NDS/Tx for 24 hrs at 4° C. in combination with either a mouse monoclonal antibody to NeuN (1:500; Chemicon, Temecula, Calif.) or a rabbit polyclonal antibody to GFAP (1:800; DAKO, Carpinteria, Calif.). The fluorescent secondary antibodies used were biotin-conjugated donkey anti-rat (1:200) plus streptavidin Cy2 (1:200), donkey anti-mouse Cy3 (1:500), or donkey anti-rabbit Cy3 (1:500) (Jackson ImmunoResearch, West Grove, Pa.). Fluorescent images were taken with a Bio-Rad MRC 1000 confocal laser scanning system coupled to a Zeiss Axiovert 100 inverted microscope. For each image acquisition, a Kalman average of five frames was used. For quantification of BrdU/NeuN or BrdU/GFAP double-labeled cells, at least 50 BrdU-positive cells per animal were analyzed using Z-plane sectioning (1 μm steps).
To determine the fate of hippocampal cells labeled with BrdU following chronic treatment with either fluoxetine or vehicle, animals were allowed to survive for a period of four weeks after injection of BrdU. During this time fluoxetine oral treatment was suspended and animals were returned to tap water. Brain sections were co-labeled with antibodies raised against BrdU and either the mature neuronal marker NeuN or the astroglial marker GFAP. […] The percentage of BrdU-positive cells within the SGZ and granule cell layer that expressed NeuN was 70±2%, and the percentage of BrdU-positive cells that expressed GFAP was 15±3%. These proportions were not influenced by the antidepressant treatment, as previously reported (Malberg et al., 2000).
(§2) In this set of experiments, wild type and 5-HT1A receptor KO mice were injected with BrdU following 27 days of treatment with fluoxetine, imipramine, or vehicle. […]

129/SvEv mice = experiment: Novelty-suppressed feeding test (NSF); format: in vivo, mouse
Procedure: The Novelty-suppressed feeding test was carried out during a 5-min period as previously described (Santarelli et al., 2001). Briefly, the testing apparatus consisted of a plastic box, 50×50×20 cm. The floor was covered with approximately 2 cm of wooden bedding. Twenty-four hours prior to behavioral testing, all food was removed from the home cage. At the time of testing, a single pellet of food (regular chow) was placed on a white paper platform positioned in the center of the box. An animal was placed in a corner of the maze and a stopwatch was immediately started. The measure of interest (chewing) was scored when the mouse was sitting on its haunches and biting with the use of forepaws. Immediately after this test, mice were transferred to their home cage and the amount of food consumed in 5 min was measured (home cage food consumption). […] Mice were always tested during the light period.
The NSF is a conflict test in which food-deprived animals are presented with a food pellet placed in the center of a brightly-lit open field. This paradigm elicits competing motivations: the drive to eat the food pellet, and the fear of venturing into the center of the arena.
Haloperidol, an antipsychotic that antagonizes D2 dopamine receptors, was used as a negative control because it is devoid of antidepressant activity in humans. NSF performance was assessed after either 5 or 28 days of oral drug administration.

[2] = test system: BrdU-positive cells in the dentate gyrus; experiment: BrdU labeling of cell proliferation, sacrifice 24 hr after BrdU; format: in vivo, mouse; conditions: for BrdU-labeled cells in dentate gyrus: 27 days of treatment, 24 hours after BrdU; for cell proliferation (BrdU-labeled cells in the SGZ): 1 mg/kg/day mini pumps
Procedure: as §1
It has recently been shown that various antidepressant treatments, including fluoxetine, increase neurogenesis in the dentate gyrus (DG) of the rat hippocampus (Malberg et al., 2000). […] To confirm that chronic fluoxetine induces changes in the number of BrdU-positive cells in the DG, we treated adult mice with either vehicle or fluoxetine for 5, 11 or 28 days. On the final day of treatment, all animals were injected with BrdU (four injections of 75 mg/kg), sacrificed 24 hours later, and perfused for immunohistochemistry. The treatment with fluoxetine caused a 60% increase in the number of BrdU positive cells in the DG of animals after either 11 or 28 days, but had no effect in animals treated for 5 days (FIGS. 2A and B).
as §2

[3] = 129/SvEv, mouse, in vivo, po
Procedure: Fluoxetine (Eli Lilly, Indianapolis, Ind.), Imipramine (Sigma-Aldrich, St. Louis, Mo.), Desipramine (Sigma-Aldrich, St. Louis, Mo.) and Haloperidol (Sigma-Aldrich, St. Louis, Mo.) were dissolved in tap water at a concentration of 80, 160, 160, and 8 mg/L, respectively. These concentration were established based on the average drinking amount and average weight of the mice used in the study to achieve a final dose of 10 (fluoxetine), 20 (imipramine and desipramine) and 1 (haloperidol) mg/kg/day. […] Vehicle animals received tap water. 8-hydroxy-2-(di-n-propylamino) tetralin (8-OH-DPAT, Sigma-Aldrich, St. Louis, Mo.) was dissolved in sterile saline (0.9% NaCl) at a concentration of 4.5 mg/ml, and delivered through Alzet osmotic mini-pumps (model 2004, Alzet, Cupertino, Calif.) implanted subcutaneously 28 days prior to behavioral testing. The final average dose delivered was 1 mg/kg/day. Sham mice were implanted with mini-pumps containing sterile saline.

[4] = test system: BrdU-positive cells in the dentate gyrus; experiment: BrdU labeling of cell proliferation, sacrifice 24 hr after BrdU; format: in vivo, mouse; conditions: chronic treatment
BALB/c mice = experiment: Chronic unpredictable stress paradigm (CUS); format: in vivo, mouse; conditions: for state of the fur (coat score) / grooming latency: 10 mg/kg/day i.p.; for weight loss induced by stress: data not shown
Procedure: The stress regimen used is a variant of the chronic mild stress procedures described by Willner et al. (Willner et al., 1992). Mice were subjected to various and repeated unpredictable stressors for a period of five weeks (Griebel et al., 2002). The different stressors used were: alterations of the bedding (repeated sawdust changing, removal of sawdust, damp sawdust, substitution of sawdust with 37° C. water); cage tilting (45°); predator sounds (15 min.); cage shift (mice were positioned in the empty cage of another male); light to dark or dark to light shifts (four light/dark successions of 30 min every 24 hours); reversal of the light/dark cycle. The fluoxetine treatment (10 mg/kg/day, i.p.) started at the beginning of the third week. The state of the coat was assessed at the end of the stress regimen (end of fifth week). The total score resulted from the sum of the score of seven different body parts: head, neck, dorsal coat, ventral coat, tail, forepaws and the hindpaws. A score of 0 was given for a well-groomed coat and 1 for a spoiled coat (see Griebel, 2002). The grooming latency was assessed at the end of the sixth week. This test consisted in squirting 200 μl of a 10% sucrose solution on the mouse's snout. The latency to start grooming was then recorded.
The CUS protocol consists of the sequential application of a number of stressors, presented in a varied and unpredictable manner during 5 weeks. The continued application of these stressors produces a deterioration in the state of the coat, an impaired grooming response, and weight loss (Griebel et al., 2002; Willner et al., 1992). ADs such as fluoxetine can reverse these stress-induced effects after chronic, but not acute, administration (Griebel et al., 2002; Willner et al., 1992).
Sham and irradiated mice were subjected to five weeks of CUS, beginning two weeks after the final X-ray dose, and half of the animals in each group were administered fluoxetine (10 mg/kg/day, i.p.) from weeks 3-6. The state of each animal's fur was assessed at the end of the stress period, and assigned a score based on observations from several body regions (see methods). Fluoxetine treatment was continued for one more week, after which we measured the latency to begin grooming following application of a sucrose solution to the head of each animal.

[5] = 5-HT1A knockout (-/-) mice, 28 days, vs vehicle
[6] = 5-day treatment via drinking water, compared to vehicle
[7] = 28-day treatment via drinking water, compared to vehicle
[8] = X-irradiated animals, chronic treatment
[9] = sham (non-irradiated) animals, chronic treatment
[10] = wild type (+/+) mice, 28 days, vs vehicle
[11] = four weeks after BrdU, chronic fluoxetine or vehicle, proportions not influenced by treatment

Compound	BrdU-positive cells surviving 28 days after BrdU injection ([1]; 5-HT1A receptor KO mice)	BrdU-positive cells surviving 28 days after BrdU injection ([1]; WT mice)	latency to feed (129/SvEv mice; [5])	latency to feed (129/SvEv mice; [6])	latency to feed (129/SvEv mice; [7])	latency to feed (129/SvEv mice; [8])	latency to feed (129/SvEv mice; [9])	latency to feed (129/SvEv mice; [10])	BrdU-labeled cells in dentate gyrus ([2]; 5-HT1A receptor KO mice)	BrdU-labeled cells in dentate gyrus ([2]; wild type mice)	time by which steady serum levels had been achieved [3]	also measured
CN(C)CCCN1c2ccccc2CCc2ccccc21 [imipramine, Imipramine]	effective	effective	effective	had no effect	significant decreases	no such anxiolytic-like effect	significant reduction	significantly decreased	significant increase	significant increase	≤ 5 days	increase in the number of BrdU positive cells (SGZ and GCL) ([2]; both genotypes (+/+ and 5-HT1A -/-), 4 weeks of treatment): ~2 fold
NCCC(Oc1ccc(C(F)(F)F)cc1)c1ccccc1 (stereo not shown) [nor-fluoxetine]	–	–	–	–	–	–	–	–	–	–	≤ 5 days	–
CNCCCN1c2ccccc2CCc2ccccc21 [desipramine, Desipramine]	–	–	effective	–	significant decreases	–	–	significantly decreased	–	–	≤ 5 days	–
CCCN(CCC)C1CCc2cccc(O)c2C1 (stereo not shown) [8-OH-DPAT, 8-hydroxy-2-(di-n-propylamino) tetralin]	–	–	–	–	–	–	–	–	–	–	–	latency to feed (129/SvEv mice; 5-HT1A receptor KO mice, 28 days s.c. osmotic mini pumps, 1 mg/kg/day, vs sham): ineffective; latency to feed (129/SvEv mice; WT mice, 28 days s.c. osmotic mini pumps, 1 mg/kg/day, vs sham): significantly decreased; cell proliferation (BrdU-labeled cells in the SGZ) ([2]; 5-HT1A receptor KO mice, chronic treatment): not observed; cell proliferation (BrdU-labeled cells in the SGZ) ([2]; WT mice, chronic treatment): increase in cell proliferation
CNCCC(Oc1ccc(C(F)(F)F)cc1)c1ccccc1 (stereo not shown) [fluoxetine, Fluoxetine]	not in KO	had an effect	insensitive	had no effect	significant decreases	no such anxiolytic-like effect	significant reduction	significantly decreased	had no effect	two-fold increase	≤ 5 days	percentage of BrdU-positive cells that expressed GFAP [1, 11]: 15±3%; percentage of BrdU-positive cells that expressed NeuN [1, 11]: 70±2%; cell proliferation in the SVZ [4]: had no effect; state of the fur (coat score) (BALB/c mice; irradiated animals): absent; weight loss induced by stress (BALB/c mice; irradiated animals): blocked this effect; grooming latency (BALB/c mice; irradiated mice): not in irradiated mice; state of the fur (coat score) (BALB/c mice; sham animals): significantly improved; weight loss induced by stress (BALB/c mice; sham animals): trend to reverse the weight loss; grooming latency (BALB/c mice; sham mice): decreased; increase in the number of BrdU positive cells in the DG ([2]; after either 11 or 28 days of treatment, vs vehicle): 60%; number of BrdU positive cells in the DG ([2]; animals treated for 5 days): had no effect; cell proliferation after irradiation ([2]; irradiated animals, chronic treatment): had no effect; cell proliferation in the SGZ ([2]; non-irradiated mice, chronic treatment): increased cell proliferation
O=C(CCCN1CCC(O)(c2ccc(Cl)cc2)CC1)c1ccc(F)cc1 [Haloperidol]	–	–	–	–	ineffective	–	–	–	–	–	–	–
